The results in this text go back to patent publication US20220264913A1, “MULTIFUNCTIONAL EXTRACTS OF SUGARCANE STRAW OR BAGASSE AND USES THEREOF” (UNIVERSIDADE CATÓLICA PORTUGUESA - UCP, priority 2019, published 2022).

Structures are written as SMILES.

What all share (format): cell-based
Conditions in all cases: extracts 50% ethanol, ND = inhibition not detected

In one assay the test system is E. coli. The assay is described as follows: MIC/MBC determination, E. coli. The procedure: (§1) The antimicrobial activity of the extracts was evaluated by measuring the minimum inhibitory concentration (MIC) and the minimum bactericidal concentration (MBC) of the extracts using the methods of the clinical and laboratory standards institute for aerobic (M07-A9) and anaerobic bacteria (M11-A8). From a previously filtered 3% stock solution a series of extract dilutions were prepared (2%, 1.5%, 1%, 0.75%, 0.5%, 0.25%, 0.125%, and 0.0625% (w/v)). A commonly used preservative, 2-phenoxyethanol was tested under the same conditions as a positive control.
(§2) MHB growth media was used for aerobic microorganisms and Wilkins Chalgren Broth (WCB) was used for anaerobic microorganisms. The microorganisms were inoculated at 2% (v/v) from an inoculum with 0.5 McFarland standard (ca. 10^8 CFU/mL) and then adjusted in order to obtain a final inoculum of 10^5 CFU/mL in the testing solutions. […] The OD of each well (experimental and control) was measured each hour at 660 nm. […] Afterwards, the concentrations for which no growth was detected were plated in MHA and Wilkins Chalgren Agar (WCA) accordingly, in order to verify the MBC. MBC and MIC were determined by the analysis of maximum absorbance registered, delay of the exponential phase entry, and the calculation of the specific growth rate. […]

A further assay has as its system MSSA. The assay is described as follows: MIC/MBC determination, MSSA. The procedure:
as §1, §2

The test system of a further assay is P. aeruginosa. Description: MIC/MBC determination, P. aeruginosa. Here is the method:
as §1, §2

Another assay relates to C. albicans. Description: MIC/MBC determination, C. albicans. The procedure: as §1, §2

Consider `OCCOc1ccccc1` [Phenoxyethanol, 2-phenoxyethanol], for which the MBC in the assay with E. coli worked out at 3%; against MSSA, 0.3%; against P. aeruginosa, 0.3%; against C. albicans, 3%.
